“Also recorded” adds a separate entry of the source.

Test [1] relates to HT29 (His-273) colon carcinoma cells. The test is described as follows: Transactivation test (pLUC-BAX) in Adriamycin treated HT29 cells. It counts as cell-based, human. The conditions noted are these: 3 μM Adriamycin. The protocol:
(§1) (A) In order to verify the SIMPI peptide specificity, independently from the cellular context, we tested SIMP1 peptides in some Adriamicyn treated colon carcinoma HT29 (His-273). cell lines. The cells have been transfected using a mixture containing lipofectamine, pLUC-BAX plasmid, β-galactosidase expression vector, SIMP1 and SIMP5M control peptides. 24 hours post-transfection, have been treated with 3 μM Adriamicyn. (B-C). Viability and inhibition assays have been carried out after transfection using SIMP1 and SIMP5M peptides in HT29 (colon cancer) and MDA-MB-468 (breast cancer) cell lines
SKBR3, HT-29, MDA-MB-468 cell lines have been transfected with Lipofectamine 2000 according to the supplier instructions (InVitrogen).
Cells (1.5×10^5) have been transiently transfected using SIMP peptides, expression plasmids and reporter constructs as internal controls for transfection efficiency. After the transfection, SKBR3, HT-29 and MDA-MB-468 have been incubated with 3 μM ADR over 24 hours. Cells have been washed with cold PBS and re-suspended in lysis buffer (Promega) and incubated for 10 min at room temp. Insoluble material has been centrifuged and luciferase activity has been determined using a commercial kit with a luminometer (Turner).

For another test, the system named is HT29 cells. The test can be described thus: In vivo tumorigenicity test (xenograft of peptide transfected HT29 cells). The following applies: naked mice, s.c. 5×10^5 peptide transfected cells/mouse, 5 weeks. As for the experimental part:
In order to assay SIMP1 in vivo antitumor activity nu/nu […] mice were administered subcutaneously with SIMP1, SIMP1KO and SIMP5M transfected HT29 cells (5.0×10^5 cells/mouse). Tumour growth has been monitored over 5 weeks.
Xenograft assays have been carried out by administration to naked mice subcutaneous injections containing 5×10^5 cells/mouse of SIMP1, SIMP1KO and SIMP5M peptide transfected colon and rectum tumour human cell line (nu/nu CD1 Charles River mice). The tumour growth together with animal body weight is monitored for 5 weeks in order to estimate the chronic toxicity
The experiments have been carried out by administration to naked mouse (nu/nu CD1 Charles River mice) subcutaneous injections containing 5×10^5 cells/mouse. The tumour growth has been monitored together with animal body weight for 5 weeks in order to estimate possible not occurred chronic toxic effects (FIG. 5).

Test [2] has as its system MDA-MB468 breast and HT29 colon carcinoma cell lines. The test is described as follows: Cell viability / proliferation assays after peptide transfection. Type of test: cell-based, human. The following applies: peptide transfected cells. As for the experimental part:
as §1
Cell viability has been tested using Trypan Blue exclusion assays.
We observed a reduction of cell proliferation in MDA-MB468 breast and HT29 colon carcinoma cell lines.

Test [3] relates to m-p53 His273 inhibition on p73 transcription activity. The test is described as follows: Transactivation test with pLUC-BAX reporter in transiently transfected H1299 cells. It counts as cell-based, human. The following applies: peptides 20 μM each. As for the experimental part: (A) MDA-MB-468 (5×10^5) cells have been transfected using a lipofectamine containing mixture, βgal expression vector, which normalizes transfection efficiency, and SIMPI peptide (20 μM). Total cellular lysates (1 mg), have been immunoprecipitated with antibodies directed against p73 and immunoglobulins (IgG). Immunoprecipitates and an aliquot (50 μg) of total lysate after 12% acrylamide gel electrophoretic run have been transferred on nitrocellulose membrane and labelled with antibodies shown in the figure. (B) MDA-MB-468 cells, have been transfected using SIMP1 and SIMP5,6. peptides. Successively, cells have been washed and stimulated with 3 μM Adriamycin. Total obtained lysates (30 μg) have been assayed for the expression of PARP and BAX apoptotic proteins. Lysate has been normalized by assaying γ-tubulin expression. (C-D). Transactivation tests have been carried out by transient transfection of H1299 cells using a mixture containing lipofectamine, SIMP1, SIMP5,6 indicated plasmids (20 μM each) together with pLUC-BAX reporter vector. To each reaction mixture an equal amount of […] expression vector was added, in order to normalize the transfection efficiency. […]
To this end, we have analyzed the ability in blocking the His273 p53 induced inhibition on transcription activity. […]

As to “FQQSSTAKSATW (p73 SIMP (aa 131-142)) [SIMP1]”, the “sensitivity to Adriamycin” value in test [1] is given as “made the same more sensitive to the treatment with Adriamycin”. Further, the “tumour growth (tumour size) in vivo” value in the test with HT29 cells was “tumour growth is decreased; also recorded: meaningful reduction of the growth (tumour size)”. Besides, the “cell proliferation in vitro” value in test [2] is recorded as “reduce the cell proliferation in vitro”. The “restoration of p73 transcription activity inhibited by m-p53 His273” value in test [3] is given as “modify mutated p53/p73 protein complex restoring p73 oncosuppressive functions; also recorded: blocked the m-p53 His273 inhibition on p73 transcription activity”.

The record behind these values is patent US20120237614A1, “PEPTIDE ABLE TO DISRUPT THE PROTEIN COMPLEX BETWEEN THE HIS273 MUTADED P53 PROTEIN AND THE ONCOSUPPRESSIVE P73 PROTEIN IN TUMOR CELLS AND THERAPEUTIC USES THEREOF” (priority 2009, published 2012).
